What all share (assay type): cell-based, hepatitis C virus (genotype 1a-H77)
For test [1], the system named is HCV replicon with a D168E mutation in a 1a-H77 background. Briefly: transient replicon assay, D168E mutation in 1a-H77 background. The following applies: Hepatitis C virus, read-out: EC50 in a transient replicon assay with a D168E mutation in a 1a-H77 background. The protocol:
(§1) Replicon cell lines can be maintained in Dulbecco's modified Eagles medium (DMEM) containing 100 IU/ml penicillin, […] streptomycin (Invitrogen), […] G418 (Invitrogen) and 10% (v/v) fetal bovine serum (FBS). Replicon-containing cells can be seeded into 96 well plates at a density of 5000 cells per well in 100 μl DMEM containing 5% FBS. The next day, the compound can be initially diluted in dimethyl sulfoxide (DMSO) to generate a 200× stock of the inhibitor in a series of 8 half-log dilutions. The dilution series can then be diluted 100-fold in the medium containing 5% FBS. One hundred microliters of medium with the inhibitor can be added to each well of the overnight cell culture plate already containing 100 μl of DMEM with 5% FBS. In assays where the protein binding effect on inhibitor potency is assessed, the medium from the overnight cell culture plates can be replaced with 200 μl DMEM containing 40% human plasma (Innovative Research) plus 5% FBS as well as compound. The cells can be grown for 4 days in tissue culture incubators. The inhibitory effects of compounds against the replicons can be determined by measuring either the level of luciferase or HCV RNA. The luciferase assay can be conducted using a Luciferase Assay System kit (Promega) following the manufacturer's instructions. Briefly, the cell culture medium is removed and wells are washed with 200 μl of phosphate-buffered saline. To each well Passive Lysis buffer (Promega, Wis.) is added and the plates are incubated for 30 min with rocking to lyse the cells. Luciferin solution (50 μl, Promega) is added, and luciferase activity is measured with a Victor II luminometer (Perkin-Elmer). To determine HCV RNA levels, RNA extractions can be performed using the CellsDirect kit (Invitrogen), and the HCV RNA copy number can be measured using the SuperScript III Platinum One-Step qRT-PCR system (Invitrogen) and primers specific to the HCV 5′ nontranslated region. Cytotoxicity can be determined by the 3-[4,5-dimethylhiazol-2-yl]-2,5-diphenyltetrazolium bromide (MTT) colorimetric assay as follows. Replicon cells is plated in 96-well plates (4000 cells per well), the next day compound dilutions are added as in the activity assay, and the cells are grown in the presence of the inhibitors for 4 days. The MTT solution is diluted in DMEM containing 5% FBS and 60 μl of the solution is added to the cells. After 4 hrs, the cells are solubilized by the addition of 30 […]μl SDS (20% in 0.02 N HCl). The plates are incubated overnight and the optical density can be measured at 570 nm. To determine compounds' EC50 and TD50, luciferase, RNA inhibition and MTT data can be analyzed using the GraphPad Prism 4 software (equation: sigmoidal dose-response—variable slope).
(§2) The 1a-H77 replicon for transient assays further differs from the replicon in the stable cell line in that it contains NS2 through NS5B in the second cistron. The 1b-N strain replicon contains NS3 through NS5B in the second cistron, with adaptive mutations E1202G in NS3 and S2204I in NS5A. Mutagenesis can be performed using the Stratagene QuikChange XL II site-directed mutagenesis kit. Mutants' sequences can be confirmed, plasmids can be linearized with Xba I restriction enzyme and used as template for in vitro transcription reactions to make mutant replicon RNA for transient transfections. In vitro transcription can be performed with the T7 Megascript kit (Ambion).
(§3) Transient replicon transfections can be performed essentially as described by Mo et al. (Antimicrob Agents Chemother (2005) 49(10):4305-4314) with slight modifications. Fifteen micrograms of template RNA can be used to electroporate 3×10^6 cells in a 200 μl volume in a 0.2 cm cuvette. The cells used for transient transfections can be Huh7 cells obtained by curing replicon-containing cells with IFN (Mo et al., supra). Electroporation can be done with a Gene Pulser II (Bio-Rad, CA) at 480V and 25 μF, using two manual pulses. […]

Test [2] has as its system HCV replicon with a D168V mutation in a 1a-H77 background. Briefly: transient replicon assay, D168V mutation in 1a-H77 background. The settings on record: Hepatitis C virus, read-out: EC50 in a transient replicon assay with a D168V mutation in a 1a-H77 background. On the procedure:
as §1, §2, §3

Test [3] concerns HCV replicon with a R155K mutation in a 1a-H77 background. Kind of test: transient replicon assay, R155K mutation in 1a-H77 background. The settings on record: Hepatitis C virus, read-out: EC50 in a transient replicon assay with a R155K mutation in a 1a-H77 background. The protocol: as §1, §2, §3

With `CC(C)[C@@H](C(=O)N[C@H]1CCCCC/C=C\[C@@H]2C[C@@]2(C(=O)NS(=O)(=O)C2CC2)NC(=O)[C@@H]2C[C@@H](Oc3nc4ccccc4nc3C(F)(F)F)CN2C1=O)N1CCCNC1=O` [Example 19, (2R,6S,13aS,14aR,16aS,Z)—N-(cyclopropylsulfonyl)-6-((S)-3-methyl-2-(2-oxotetrahydropyrimidin-1(2H)-yl)butanamido)-5,16-dioxo-2-(3-(trifluoromethyl)quinoxalin-2-yloxy)-1,2,3,5,6,7,8,9,10,11,13a,14,14a,15,16,16a-hexadecahydrocyclopropa[e]pyrrolo[1,2-a][1,4]diazacyclopentadecine-14a-carboxamide], the EC50 in test [1] is over 100 nM; in test [2], over 1000 nM; in test [3], over 50 nM.
Regarding `Cc1nc2ccc(F)cc2nc1O[C@@H]1C[C@H]2C(=O)N[C@]3(C(=O)NS(=O)(=O)C4CC4)C[C@H]3/C=C\CCCCC[C@H](NC(=O)OC(C)(C)C)C(=O)N2C1` [Example 20, tert-butyl (2R,6S,13aS,14aR,16aS,Z)-14a-(cyclopropylsulfonylcarbamoyl)-2-(7-fluoro-3-methylquinoxalin-2-yloxy)-5,16-dioxo-1,2,3,5,6,7,8,9,10,11,13a,14,14a,15,16,16a-hexadecahydrocyclopropa[e]pyrrolo[1,2-a][1,4]diazacyclopentadecin-6-ylcarbamate], the EC50 in test [1] was 3 to 20 nM; in test [2], 25 to 50 nM; in test [3], under 1 nM.
Consider `Cc1nc2ccc(F)cc2nc1O[C@@H]1C[C@H]2C(=O)N[C@]3(C(=O)NS(=O)(=O)C4CC4)C[C@H]3/C=C\CCCCC[C@H](NC(=O)c3noc(C)c3C)C(=O)N2C1` [Example 21, N-((2R,6S,13aS,14aR,16aS,Z)-14a-(cyclopropylsulfonylcarbamoyl)-2-(7-fluoro-3-methylquinoxalin-2-yloxy)-5,16-dioxo-1,2,3,5,6,7,8,9,10,11,13a,14,14a,15,16,16a-hexadecahydrocyclopropa[e]pyrrolo[1,2-a][1,4]diazacyclopentadecin-6-yl)-4,5-dimethylisoxazole-3-carboxamide], for which the concentration giving a half-maximal response (EC50) is under 3 nM in test [1], under 25 nM in test [2] and under 1 nM in test [3].
With `Cc1nc2ccc(F)cc2nc1O[C@@H]1C[C@H]2C(=O)N[C@]3(C(=O)NS(=O)(=O)C4(C)CC4)C[C@H]3/C=C\CCCCC[C@H](NC(=O)c3noc(C)c3C)C(=O)N2C1` [Example 24, N-((2R,6S,13aS,14aR,16aS,Z)-2-(7-fluoro-3-methylquinoxalin-2-yloxy)-14a-(1-methylcyclopropylsulfonylcarbamoyl)-5,16-dioxo-1,2,3,5,6,7,8,9,10,11,13a,14,14a,15,16,16a-hexadecahydrocyclopropa[e]pyrrolo[1,2-a][1,4]diazacyclopentadecin-6-yl)-4,5-dimethylisoxazole-3-carboxamide], the EC50 was under 3 nM in test [1], under 25 nM in test [2] and under 1 nM in test [3].
The matching figures for `Cc1nc2cccc(F)c2nc1O[C@@H]1C[C@H]2C(=O)N[C@]3(C(=O)NS(=O)(=O)C4CC4)C[C@H]3/C=C\CCCCC[C@H](NC(=O)OC(C)(C)C)C(=O)N2C1` [Example 54, tert-butyl (2R,6S,13aS,14aR,16aS,Z)-14a-(cyclopropylsulfonylcarbamoyl)-2-(8-fluoro-3-methylquinoxalin-2-yloxy)-5,16-dioxo-1,2,3,5,6,7,8,9,10,11,13a,14,14a,15,16,16a-hexadecahydrocyclopropa[e]pyrrolo[1,2-a][1,4]diazacyclopentadecin-6-ylcarbamate]: 20 to 50 nM, 50 to 250 nM and 1 to 10 nM.
The matching figures for `Cc1nc2cccc(F)c2nc1O[C@@H]1C[C@H]2C(=O)N[C@]3(C(=O)NS(=O)(=O)C4CC4)C[C@H]3/C=C\CCCCC[C@H](NC(=O)c3ccon3)C(=O)N2C1` [Example 55, N-((2R,6S,13aS,14aR,16aS,Z)-14a-(cyclopropylsulfonylcarbamoyl)-2-(8-fluoro-3-methylquinoxalin-2-yloxy)-5,16-dioxo-1,2,3,5,6,7,8,9,10,11,13a,14,14a,15,16,16a-hexadecahydrocyclopropa[e]pyrrolo[1,2-a][1,4]diazacyclopentadecin-6-yl)isoxazole-3-carboxamide]: 20 to 50 nM, 50 to 250 nM and 1 to 10 nM.
For `Cc1nc2cccc(F)c2nc1O[C@@H]1C[C@H]2C(=O)N[C@]3(C(=O)NS(=O)(=O)C4CC4)C[C@H]3/C=C\CCCCC[C@H](NC(=O)c3noc(C)c3C)C(=O)N2C1` [Example 57, N-((2R,6S,13aS,14aR,16aS,Z)-14a-(cyclopropylsulfonylcarbamoyl)-2-(8-fluoro-3-methylquinoxalin-2-yloxy)-5,16-dioxo-1,2,3,5,6,7,8,9,10,11,13a,14,14a,15,16,16a-hexadecahydrocyclopropa[e]pyrrolo[1,2-a][1,4]diazacyclopentadecin-6-yl)-4,5-dimethylisoxazole-3-carboxamide] the same measures were 3 to 20 nM, under 25 nM and under 1 nM.
For the molecule `Cc1cc(C(=O)N[C@H]2CCCCC/C=C\[C@@H]3C[C@@]3(C(=O)NS(=O)(=O)C3(C)CC3)NC(=O)[C@@H]3C[C@@H](Oc4nc5c(F)cccc5nc4C)CN3C2=O)no1` [Example 58, N-((2R,6S,13aS,14aR,16aS,Z)-2-(8-fluoro-3-methylquinoxalin-2-yloxy)-14a-(1-methylcyclopropylsulfonylcarbamoyl)-5,16-dioxo-1,2,3,5,6,7,8,9,10,11,13a,14,14a,15,16,16a-hexadecahydrocyclopropa[e]pyrrolo[1,2-a][1,4]diazacyclopentadecin-6-yl)-5-methylisoxazole-3-carboxamide], the EC50 in test [1] was 3 to 20 nM; in test [2], under 25 nM; in test [3] it was under 1 nM.
For `Cc1cc(C(=O)N[C@H]2CCCCC/C=C\[C@@H]3C[C@@]3(C(=O)NS(=O)(=O)C3CC3)NC(=O)[C@@H]3C[C@@H](Oc4nc5cc(F)cc(Br)c5nc4C)CN3C2=O)no1` [Example 98, N-((2R,6S,13aS,14aR,16aS,Z)-2-(5-bromo-7-fluoro-3-methylquinoxalin-2-yloxy)-14a-(cyclopropylsulfonylcarbamoyl)-5,16-dioxo-1,2,3,5,6,7,8,9,10,11,13a,14,14a,15,16,16a-hexadecahydrocyclopropa[e]pyrrolo[1,2-a][1,4]diazacyclopentadecin-6-yl)-5-methylisoxazole-3-carboxamide] the same measures were 3 to 20 nM, under 25 nM and 1 to 10 nM.
For `Cc1nc2c(Br)cc(F)cc2nc1O[C@@H]1C[C@H]2C(=O)N[C@]3(C(=O)NS(=O)(=O)C4(C)CC4)C[C@H]3/C=C\CCCCC[C@H](NC(=O)c3ccon3)C(=O)N2C1` [Example 100, N-((2R,6S,13aS,14aR,16aS,Z)-2-(5-bromo-7-fluoro-3-methylquinoxalin-2-yloxy)-14a-(1-methylcyclopropylsulfonylcarbamoyl)-5,16-dioxo-1,2,3,5,6,7,8,9,10,11,13a,14,14a,15,16,16a-hexadecahydrocyclopropa[e]pyrrolo[1,2-a][1,4]diazacyclopentadecin-6-yl)isoxazole-3-carboxamide] the same measures were 3 to 20 nM, under 25 nM and under 1 nM.

These data come from patent US9493506B2 (Enanta Pharmaceuticals, Inc., priority 2010, dated 2016).
